Laboratory results from patent US20240317865A1, “ANTIBODIES AGAINST INTEGRIN ALPHA 11 BETA 1” (MOMENTA PHARMACEUTICALS, INC., priority 2020, published 2024).

Test system: A549 cell xenografts
Assay: Tumor xenograft model
Assay type: in vivo, C.B-17 SCID mice
Details: docetaxel 10 mg/kg every 4 days, 6 doses
Method: Fifty-six female C.B-17 SCID mice were inoculated with A549 cells (5×10^6 cells/mouse) subcutaneously in the flank. Once tumor volume reached ˜100 mm^3, animals were randomized amongst 7 groups of 8 mice each. Mice were then treated intraperitonealy every 3 days for a total of 7 doses with isotype controls or novel mAbs 79E3E3, 16E10 and 9G04 (2 and 20 mg/kg) or with docetaxel at 10 mg/kg every 4 days for a total of 6 doses. Tumor volumes and body weights were recorded twice a week with a gap of 2-3 days in between two measurements until any of the following conditions defined were observed: loss of 20% or more body weight; tumors that inhibit normal physiological function such as eating, drinking, and mobility; ulcerated tumors; tumor size greater than 2000 mm^3 and clinical observations of prostration, paralysis, seizures and hemorrhages.
In this example, studies were performed to determine if inhibition of α11β1 function with mAb results in xenograft growth inhibition. As shown in FIG. 16 and Table 4, blocking α11β1 on mouse CAFs impeded xenograft growth in SCID mice.

Structure (SMILES): CC(=O)O[C@@]12CO[C@@H]1C[C@H](O)[C@@]1(C)C(=O)[C@H](O)C3=C(C)[C@@H](OC(=O)[C@H](O)[C@@H](NC(=O)OC(C)(C)C)c4ccccc4)C[C@@](O)([C@@H](OC(=O)c4ccccc4)[C@H]21)C3(C)C [Docetaxel, docetaxel, reference compound]
- Days to Volume Doubling (ave, 95% CI): 11.0 (10.0, 12.0) Days
